# Test: small volume in vitro release in 50 ml 0.1N HCl
# Format: physicochemical
# Settings: 37° C., 150 rpm
# Description: The formulations were tested for their small volume in vitro release characteristics in 50 ml 0.1N HCl at 37° C. and 150 rpm using the following procedure: III. Instrumentation (or Equivalent) • a. Automated Dissolution System comprising of: • Hanson SR8 Plus Test Station • Hanson Auto Plus Maximiser System Controller • Hanson Auto Plus MultiFill Fraction Collector • b. […] Procedure • Place one weighed capsule in each vessel containing 0.1N HCl and immediately operate the apparatus for 30 min. • Unless otherwise specified, 3 ml samples are withdrawn from each vessel and immediately filtered through PTFE membranes at 15 and 30 min. IV.
# The small volume was chosen as a model of the conditions in a fasted stomach.
structure (smiles),measurement,value
CC(C)OC(=O)C(C)(C)Oc1ccc(C(=O)c2ccc(Cl)cc2)cc1 [Micronized Fenofibrate],dissolution under small volume model condition (in words),no dissolution at all
